Patent EP4623908A1, “USE OF (-)-EPIGALLOCATECHIN GALLATE COMPOUND” (CF Pharmtech, Inc., priority 2022, dated 2024)

Key:
[1] = system: Pulmonary Fibrosis Induced by Bleomycin in Rats; assay: Bleomycin-induced pulmonary fibrosis model in rats (Example 5); type: in vivo, SD rats; conditions: for Hydroxyproline Content: rat lung tissue, Mean ±SEM
Experimental: This study aims to compare the effects of different administration methods, including oral gavage of EGCG, tracheal nebulization of pirfenidone solution, and tracheal nebulization of EGCG at different doses, on the collagen content in lung tissues and pathological observations of rats with bleomycin-induced pulmonary fibrosis. The therapeutic effect of inhaled EGCG on rat pulmonary fibrosis was evaluated.
The solvents for the EGCG nebulization solution, modeling agents, and their solvents are as described in Example 4. The positive control drug is pirfenidone (purity 99%, pharmaceutical grade), with the solvent components consisting of NaCl and citric acid, forming a clear liquid.
SPF-grade SD rats, 6-9 weeks old with a weight of 200-300g, totaling 88 rats, were randomly divided into the following groups: • Sham operation group (normal control) (8 rats) • Pulmonary fibrosis model control group (10 rats) • Oral gavage EGCG group 1 (10 rats) • Oral gavage EGCG group 2 (10 rats) • Tracheal Nebulization EGCG solution groups 1-4 (10 rats per group, total 40 rats) • Tracheal Nebulization pirfenidone solution group (10 rats)
On D1, the normal control group was administered solvent 2 (saline injection solution, 1 mL/kg) via tracheal nebulization, while all other groups were administered bleomycin (2.5 mg/kg, 1 mL/kg) via tracheal nebulization twice a day (morning and afternoon) to establish the model. On D8, the body weights of the animals were recorded. From D10 to D28, the normal control and pulmonary fibrosis model groups were treated with solvent 1 via tracheal nebulization, while the remaining groups were administered EGCG or pirfenidone once daily at the following doses and administration methods: • Oral gavage EGCG group 1 and 2: 30 mg/kg, 60 mg/kg • Tracheal Nebulization EGCG group 1-4: 0.05 mg/kg, 0.4 mg/kg, 0.8 mg/kg, 1.6 mg/kg • Tracheal Nebulization pirfenidone solution group: 0.9 mg/kg (reference dose from M.W. Surber et al., ATS POSTER, 2014)
On D29, all animals were euthanized for dissection. During the necropsy, the lungs, trachea, and bronchi were examined for abnormalities. Left lung tissue was preserved at below -60°C for hydroxyproline content detection, and right lung tissue was prepared for pathological sectioning. Hematoxylin and eosin (HE) staining and Masson staining were performed for pathological morphological observations and fibrosis evaluation.
All groups were compared to the model group using statistical analysis via Kruskal-Wallis test. The results are indicated as follows: • *P < 0.05: statistically significant difference • **P < 0.01: highly significant difference • ***P < 0.001: extremely significant difference • ****P < 0.0001: extremely highly significant difference

[2] = molecular target: T1, lysyl oxidase-like protein-2 (LOXL2) (Homo sapiens, UniProt Q9Y4K0); conditions: cited from earlier work
T1 sequence (Q9Y4K0 26-774): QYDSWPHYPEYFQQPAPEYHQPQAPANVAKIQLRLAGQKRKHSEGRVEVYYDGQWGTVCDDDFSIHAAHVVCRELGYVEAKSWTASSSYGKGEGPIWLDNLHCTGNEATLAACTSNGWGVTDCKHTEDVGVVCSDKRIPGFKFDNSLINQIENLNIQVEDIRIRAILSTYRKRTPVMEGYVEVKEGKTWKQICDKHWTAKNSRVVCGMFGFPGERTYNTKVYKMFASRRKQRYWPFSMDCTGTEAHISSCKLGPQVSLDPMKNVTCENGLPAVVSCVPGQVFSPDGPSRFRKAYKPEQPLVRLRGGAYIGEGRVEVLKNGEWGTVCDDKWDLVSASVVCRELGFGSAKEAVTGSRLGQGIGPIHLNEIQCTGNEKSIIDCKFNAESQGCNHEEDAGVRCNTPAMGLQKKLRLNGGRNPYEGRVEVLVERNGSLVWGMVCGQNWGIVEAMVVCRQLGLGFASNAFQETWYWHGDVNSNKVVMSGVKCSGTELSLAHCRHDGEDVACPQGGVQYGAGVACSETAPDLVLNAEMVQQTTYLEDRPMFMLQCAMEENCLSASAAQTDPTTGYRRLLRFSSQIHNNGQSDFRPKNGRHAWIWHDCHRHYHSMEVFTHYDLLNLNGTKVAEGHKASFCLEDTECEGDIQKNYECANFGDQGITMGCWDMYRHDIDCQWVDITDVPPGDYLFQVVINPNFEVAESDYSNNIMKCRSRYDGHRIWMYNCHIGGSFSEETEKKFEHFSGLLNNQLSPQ

[3] = system: TGFβ receptor 1 and 2 (TGFβR1/2) kinases; conditions: cited from earlier work
[4] = 26 IPF patients; oral co-administration; cited from earlier work

## O=C(O[C@@H]1Cc2c(O)cc(O)cc2O[C@@H]1c1cc(O)c(O)c(O)c1)c1cc(O)c(O)c(O)c1 [EGCG, (-)-Epigallocatechin gallate]
[1]; inhalation 0.05 (P < 0.05), 0.4 (P < 0.0001), 0.8 and 1.6 mg/kg (P < 0.001)
  hydroxyproline content in rat lungs, difference from the model group: significantly reduced
[1]; oral administration 30 mg/kg, 60 mg/kg
  hydroxyproline content in rat lungs, difference from the model group: not statistically significant
[1]; Inh 0.05mg/kg once daily D10 to D28
  Hydroxyproline Content: 0.528 ± 0.038 µg/µL
[1]; Inh 0.4mg/kg once daily D10 to D28
  Hydroxyproline Content: 0.433 ± 0.023 µg/µL
[1]; Inh 0.8mg/kg once daily D10 to D28
  Hydroxyproline Content: 0.485 ± 0.027 µg/µL
[1]; Inh 1.6 mg/kg once daily D10 to D28
  Hydroxyproline Content: 0.465 ± 0.028 µg/µL
[1]; PO 30mg/kg once daily D10 to D28
  Hydroxyproline Content: 0.608 ± 0.012 µg/µL
[1]; PO 60mg/kg once daily D10 to D28
  Hydroxyproline Content: 0.546 ± 0.026 µg/µL
[2]
  inhibition of LOXL2: effectively inhibit
[3]
  inhibition of TGFβR1/2 kinases: effectively inhibit
[4]
  reduction of the plasma exposure of Nintedanib on co-administration: about 21%
